Laboratory results as given in ChEMBL document CHEMBL1201862, “PubChem BioAssay data set” (2004).
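How tested: cells in 96-well plates exposed to compound for 48 hours at five concentrations. Abbreviation: GI50, concentration required for 50% inhibition of growth.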 The source made the active and inactive calls. Cut-off read from the data, not from the text of the source: active = GI50 up to about 1.1 µM and inactive = higher.

Legend:
Experiment in all cases: NCI-60 cell line screen, 48 h
[1] = tested on: MOLT-4
[2] = tested on: COLO 205
[3] = tested on: UO-31
[4] = tested on: SF-268
[5] = tested on: DMS-273
[6] = tested on: HOP-92
[7] = tested on: KM-20L2
[8] = tested on: NCI-H226
[9] = tested on: LXFL 529
[10] = tested on: IGROV-1
[11] = tested on: Malme-3M
[12] = tested on: M14
[13] = tested on: RXF 631
[14] = tested on: SNB-78
[15] = tested on: TK-10
[16] = tested on: SW-620
[17] = tested on: NCI-H460
[18] = tested on: UACC-257
[19] = tested on: NCI-H23
[20] = tested on: OVCAR-8
[21] = tested on: DMS-114
[22] = tested on: SK-OV-3
[23] = tested on: 786-0
[24] = tested on: HL-60
[25] = tested on: SF-295
[26] = tested on: DLD-1
[27] = tested on: A549
[28] = tested on: SK-MEL-2
[29] = tested on: SNB-19
[30] = tested on: HT-29
[31] = tested on: K562
[32] = tested on: M19-MEL
[33] = tested on: SK-MEL-28
[34] = tested on: SNB-75
[35] = tested on: EKVX
[36] = tested on: UACC-62
[37] = tested on: HOP-62
[38] = tested on: XF498
[39] = tested on: SK-MEL-5
[40] = tested on: OVCAR-3
[41] = tested on: SF-539
[42] = tested on: OVCAR-5
[43] = tested on: A498
[44] = tested on: HCT-116
[45] = tested on: RPMI-8226
[46] = tested on: HCT-15
[47] = tested on: CAKI-1
[48] = tested on: LOX IMVI
[49] = tested on: SN12C
[50] = tested on: OVCAR-4
[51] = tested on: ACHN
[52] = tested on: RXF 393
[53] = tested on: NCI-H522
[54] = tested on: CCRF-CEM
[55] = tested on: HCC 2998
[56] = tested on: U-251
[57] = tested on: KM12

Measured: GI50

N#CCCN(CCC#N)c1ccc(/C=N\c2nc(-c3ccccc3)cs2)cc1
inactive: [1] > 100 µM | [2] > 100 µM | [3] > 100 µM | [4] > 100 µM | [5] > 100 µM | [6] 50.8 µM | [7] > 100 µM | [8] > 100 µM | [9] > 100 µM | [10] > 100 µM | [11] > 100 µM | [12] > 100 µM | [13] > 100 µM | [14] > 100 µM | [15] 81.7 µM | [16] > 100 µM | [17] > 100 µM | [18] > 100 µM | [19] > 100 µM | [20] > 100 µM | [21] 73.3 µM | [22] > 100 µM | [23] > 100 µM | [24] > 100 µM | [25] 45.7 µM | [26] > 100 µM | [27] > 100 µM | [28] > 100 µM | [29] > 100 µM | [30] > 100 µM | [31] > 100 µM | [32] > 100 µM | [33] > 100 µM | [34] 29.8 µM | [35] > 100 µM | [36] > 100 µM | [37] 84.3 µM | [38] 56.8 µM | [39] > 100 µM | [40] > 100 µM | [41] > 100 µM | [42] > 100 µM | [43] > 100 µM | [44] > 100 µM | [45] > 100 µM | [47] > 100 µM | [48] > 100 µM | [49] > 100 µM | [50] 63.4 µM | [51] > 100 µM | [52] 39.7 µM | [53] 49.3 µM
> 100 µM: [46]

Cc1cc(N(CCC#N)CCC#N)ccc1/C=C/C(=O)Nc1cccc(Cl)c1
38.5 µM: [46]
inactive: [1] > 100 µM | [2] > 100 µM | [3] 27.6 µM | [4] > 100 µM | [5] > 100 µM | [6] 43.4 µM | [7] 87.1 µM | [8] > 100 µM | [9] 29.7 µM | [10] > 100 µM | [11] > 100 µM | [12] > 100 µM | [13] > 100 µM | [15] > 100 µM | [16] > 100 µM | [17] > 100 µM | [18] > 100 µM | [54] 85.7 µM | [19] > 100 µM | [20] > 100 µM | [21] > 100 µM | [22] > 100 µM | [23] > 100 µM | [24] 51.3 µM | [25] > 100 µM | [26] > 100 µM | [27] > 100 µM | [28] > 100 µM | [29] > 100 µM | [30] > 100 µM | [31] 32.3 µM | [32] > 100 µM | [55] > 100 µM | [33] > 100 µM | [34] 89.9 µM | [35] > 100 µM | [36] 46.9 µM | [37] > 100 µM | [38] > 100 µM | [39] > 100 µM | [40] > 100 µM | [41] > 100 µM | [42] > 100 µM | [43] > 100 µM | [44] > 100 µM | [45] > 100 µM | [47] > 100 µM | [48] 52.2 µM | [56] > 100 µM | [49] > 100 µM | [50] 58.6 µM | [57] > 100 µM | [51] 57.3 µM | [53] 62.7 µM
